Holding throughout (type): biochemical
The target of one assay is T1, E. coli Topoisomerase IV (Escherichia coli, UniProt P0AFI2+P20083).
T1 construct: purchased Inspiralis, UK
Put plainly: Topoisomerase IV decatenation assay (E. coli). As for the experimental part: (§1) The above compounds were tested for the inhibition of the enzyme DNA gyrase in a gyrase supercoiling assay and for the inhibition of the enzyme topoisomerase IV in a decatenation assay, in both Gram positive and Gram negative bacteria, according to the following methods.
(§2) Both the assays were carried out according to a set-up method modified from the article to Blanche F, et al. “Differential Behaviors of Staphylococcus aureus and Escherichia coli Type II DNA Topoisomerases”, Antimicrob. Agents Chemother., 1996, Vol. 40, No. 12 p. 2714-2720.
(§3) The compounds were screened at single concentration (200, 100 or 50 μM), in duplicate.
(§4) S. aureus and E. coli Topoisomerase IV decatenation kits (Inspiralis, UK) were used. A master mix with a total volume sufficient for the number of reactions to perform was prepared with the following reagents: 5× assay buffer (50 mM HEPES-KOH (pH 7.6), 100 mM potassium glutamate, 10 mM magnesium acetate, 10 mM DTT, 1 mM ATP, 50 μg/ml albumin), kDNA substrate (200 ng/reaction), RNase-DNase free water. Aliquots of this mix were dispensed in each tube, then 10× compound stock solutions or vehicle control (DMSO), were added in each reaction tube.
(§5) Reaction was started with Topoisomerase IV enzyme (0.5 U/reaction) addition.
(§6) A sample added with an equal volume of dilution buffer was used as negative control (without enzyme).
(§7) The reaction tubes were gentle vortexed and incubated 30 minutes at 37° C. Each reaction was stopped by adding 30 μl of Stop Buffer and 30 μl of chloroform/isoamyl alcohol (24/1), briefly vortexed for 5-10 seconds and centrifuged at 20000×g for 2 minutes. Samples taken from the upper phase were loaded into 1% agarose gel and subjected to electrophoresis for 1 hour at 80V constant voltage in TAE (40 mM Tris-acetate, 2 mM EDTA).
(§8) Data acquisition and analysis. Due to the high molecular mass, kDNA could not enter an agarose gel under normal electrophoresis conditions, but remained in the wells. In the presence of Topo IV topoisomerase mini-circles (2.5 Kb) were released from kDNA by decatenation and were quickly and easily resolved in the gel at relatively high voltages.
(§9) Bands were visualized by ethidium bromide staining (dil 1:20000) for 30 minutes followed by destaining in distilled water for 10 minutes.
(§10) For single concentration screening assay, in order to evaluate the compounds activity on the enzymes, the bands of decatenated DNAs in the gel were photographed by a digital imaging system ImageQuant LAS 4000 (GE Healthcare) according to manufacturer's instructions.
(§11) The fluorescent intensity of each band was analyzed by ImageQuant TL software and it was expressed as volume (volume of the uncalibrated quantity of material in the image feature after subtraction of the background intensity by using rolling ball method).
(§12) Each band intensity was compared, as percentage, to vehicle sample band intensity, which served as positive control, on the same gel.
(§13) Inhibitory activity was expressed as percent of inhibition versus the positive control.
(§14) The supercoiled or decatenated DNA bands obtained as described in Example 1 were analysed as follows.
(§15) Bands were analyzed by gel documentation equipment (Syngene, Cambridge, UK) and quantitated using Syngene Gene Tools software. Raw gel data (fluorescent band volumes) collected from Syngene, GeneTools gel analysis software were converted to a percentage of the 100% control (the fully supercoiled or decatenated DNA band). […] The IC50 data were calculated by using the global curve fit non-linear regression tool by selecting the Single, 2 Parameter fit function from the Exponential Decay equation category.

Assay [1] deals with T2, S. aureus Topoisomerase IV (Staphylococcus aureus, UniProt P0C1S7+P0C1U9).
T2 construct: purchased Inspiralis, UK
T2 sequence (P0C1S7 whole entry): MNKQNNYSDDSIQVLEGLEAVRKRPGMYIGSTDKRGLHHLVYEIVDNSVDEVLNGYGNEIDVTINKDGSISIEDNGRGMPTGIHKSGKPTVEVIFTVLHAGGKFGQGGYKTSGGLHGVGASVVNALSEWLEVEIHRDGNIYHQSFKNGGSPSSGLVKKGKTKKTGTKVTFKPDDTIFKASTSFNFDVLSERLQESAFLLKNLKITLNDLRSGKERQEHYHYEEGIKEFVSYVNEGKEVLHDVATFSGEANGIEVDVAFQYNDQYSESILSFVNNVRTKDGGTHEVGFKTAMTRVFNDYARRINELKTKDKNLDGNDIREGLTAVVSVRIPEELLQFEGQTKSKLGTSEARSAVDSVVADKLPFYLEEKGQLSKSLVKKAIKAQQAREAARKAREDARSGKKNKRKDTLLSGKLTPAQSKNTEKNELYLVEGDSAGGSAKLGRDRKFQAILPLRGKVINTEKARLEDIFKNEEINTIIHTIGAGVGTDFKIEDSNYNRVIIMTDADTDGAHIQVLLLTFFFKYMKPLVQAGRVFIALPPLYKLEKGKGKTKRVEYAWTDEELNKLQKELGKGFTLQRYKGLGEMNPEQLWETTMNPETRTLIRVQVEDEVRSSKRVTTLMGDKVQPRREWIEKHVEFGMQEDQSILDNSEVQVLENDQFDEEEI
T2 sequence (P0C1U9 whole entry): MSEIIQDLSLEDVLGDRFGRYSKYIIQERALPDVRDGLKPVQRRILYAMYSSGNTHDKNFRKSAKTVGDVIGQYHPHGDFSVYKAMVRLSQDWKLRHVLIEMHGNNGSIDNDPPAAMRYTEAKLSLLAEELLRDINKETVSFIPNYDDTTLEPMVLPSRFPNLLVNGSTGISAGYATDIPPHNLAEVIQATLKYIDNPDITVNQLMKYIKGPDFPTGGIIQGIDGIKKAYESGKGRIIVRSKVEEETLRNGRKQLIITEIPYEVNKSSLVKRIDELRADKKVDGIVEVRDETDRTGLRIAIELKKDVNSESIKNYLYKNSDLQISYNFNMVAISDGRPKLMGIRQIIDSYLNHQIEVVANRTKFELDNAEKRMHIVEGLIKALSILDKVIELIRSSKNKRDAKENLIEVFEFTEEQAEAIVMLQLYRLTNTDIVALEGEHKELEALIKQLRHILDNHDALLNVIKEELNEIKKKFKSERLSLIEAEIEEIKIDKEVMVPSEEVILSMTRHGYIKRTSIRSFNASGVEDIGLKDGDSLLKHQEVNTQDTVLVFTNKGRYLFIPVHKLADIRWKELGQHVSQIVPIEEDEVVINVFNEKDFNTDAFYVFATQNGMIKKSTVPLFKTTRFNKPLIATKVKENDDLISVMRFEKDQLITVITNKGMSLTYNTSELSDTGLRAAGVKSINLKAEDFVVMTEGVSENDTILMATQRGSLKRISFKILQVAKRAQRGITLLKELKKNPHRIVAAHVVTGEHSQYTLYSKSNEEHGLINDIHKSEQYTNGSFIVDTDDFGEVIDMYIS
In words: Topoisomerase IV decatenation assay (S. aureus). As for the experimental part:
as §1, §2, §3, §4, §5, §6, §7, §8, §9, §10, §11, §12, §13, §14, §15

The next assay addresses T3, S. aureus DNA gyrase (Staphylococcus aureus, UniProt P0A0K8+P20831).
T3 construct: purchased Inspiralis, UK
In words: DNA gyrase supercoiling assay (S. aureus). As for the experimental part: as §1, §2, §3
(§16) Reagents from S. aureus and E. coli Gyrase Supercoiling Assay kits (Inspiralis, UK) were used. A master mix with a total volume sufficient for the number of reactions to perform was prepared with the following reagents: 5× assay buffer, relaxed pBR322 substrate (0.5 μg/reaction), RNase-DNase free water. Aliquotes of this mix were dispensed in each tube, then 10× compound stock solutions or vehicle control (DMSO), were added to each reaction tube.
(§17) Reaction was started with E. Coli (2 U/reaction) or S. aureus (1 U/reaction) gyrase enzyme addition.
as §6
(§18) The reaction tubes were gentle vortexed and incubated 30 minutes at 37° C. Each reaction was stopped by adding 30 μl of Stop Buffer and 30 μl chloroform/isoamyl alcohol (24/1), briefly vortexed for 5-10 seconds and centrifuged at 20000×g for 2 minutes. Samples were loaded onto 1% agarose gel and subjected to electrophoresis for 1 hour at 80V constant voltage in TAE (40 mM Tris-acetate, 2 mM EDTA).
(§19) Data acquisition and analysis. Treatment of relaxed pBR322 with DNA gyrase converted the relaxed topoisomers (DNAs of different linking number) to the supercoiled form of the plasmid, which migrates faster on an agarose gel. An upper band might also be visible, which consists of open-circular (nicked) DNA which is present in the relaxed substrate but co-migrates with some of the relaxed topoisomers.
(§20) Bands were visualized by ethidium bromide staining (dilution 1:20000) for 30 minutes followed by destaining in distilled water for 10 minutes.
(§21) In order to evaluate the compounds activity on the enzyme, the bands of supercoiled DNAs in the gel were photographed by a digital imaging system ImageQuant LAS 4000 (GE Healthcare) according to manufacturer's instructions.
as §11, §12, §13, §14, §15

Another assay has as its target T4, E. coli DNA gyrase (Escherichia coli, UniProt P0AES4+P0AES6).
T4 construct: purchased Inspiralis, UK
Put plainly: DNA gyrase supercoiling assay (E. coli). As for the experimental part:
as §1, §2, §3, §16, §17, §6, §18, §19, §20, §21, §11, §12, §13, §14, §15

The mark [2] stands for this setting: E. coli, conc. 50 μM, n/a = not active.
The mark [3] stands for this setting: E. coli, concentration-response curve, eight half-log concentrations 0.1 to 300 μM, read-out: IC50 Topo IV.
Where [4] appears, read: S. aureus, conc. 50 μM, n/a = not active.
Setting [5] is: S. aureus, concentration-response curve, eight half-log concentrations 0.1 to 300 μM, read-out: IC50 Topo IV.
Where [6] appears, read: S. aureus, concentration-response curve, eight half-log concentrations 0.1 to 300 μM, read-out: IC50 DNA gyrase.
The mark [7] stands for this setting: E. coli, concentration-response curve, eight half-log concentrations 0.1 to 300 μM, read-out: IC50 DNA gyrase.
[8] abbreviates: E. coli, conc. 100 μM, n/a = not active.
Where [9] appears, read: S. aureus, conc. 100 μM, n/a = not active.
Setting [10] is: E. coli, conc. 50 μM, n/a = not active, read-out: % inhibition Topo IV.

pIC50: −log10 of the molar value. Like-named read-outs stand apart in the source and are kept apart here.

T3 sequence (P0A0K8 whole entry): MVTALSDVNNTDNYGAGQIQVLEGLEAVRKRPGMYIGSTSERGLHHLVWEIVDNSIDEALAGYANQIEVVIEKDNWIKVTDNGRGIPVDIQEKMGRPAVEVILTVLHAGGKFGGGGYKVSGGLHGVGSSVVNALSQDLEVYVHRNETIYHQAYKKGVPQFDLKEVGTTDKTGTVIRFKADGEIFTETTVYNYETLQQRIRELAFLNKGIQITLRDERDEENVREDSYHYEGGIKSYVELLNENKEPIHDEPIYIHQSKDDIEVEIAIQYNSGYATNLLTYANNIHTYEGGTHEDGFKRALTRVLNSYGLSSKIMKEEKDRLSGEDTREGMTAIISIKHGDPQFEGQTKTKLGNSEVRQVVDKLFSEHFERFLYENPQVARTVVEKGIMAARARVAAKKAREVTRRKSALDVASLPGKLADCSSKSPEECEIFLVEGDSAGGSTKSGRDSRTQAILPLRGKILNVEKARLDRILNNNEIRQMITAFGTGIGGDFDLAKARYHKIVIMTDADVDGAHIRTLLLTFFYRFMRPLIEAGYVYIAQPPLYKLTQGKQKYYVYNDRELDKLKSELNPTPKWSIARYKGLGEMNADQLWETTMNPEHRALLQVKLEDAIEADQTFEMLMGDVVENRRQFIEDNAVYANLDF
T3 sequence (P20831 whole entry): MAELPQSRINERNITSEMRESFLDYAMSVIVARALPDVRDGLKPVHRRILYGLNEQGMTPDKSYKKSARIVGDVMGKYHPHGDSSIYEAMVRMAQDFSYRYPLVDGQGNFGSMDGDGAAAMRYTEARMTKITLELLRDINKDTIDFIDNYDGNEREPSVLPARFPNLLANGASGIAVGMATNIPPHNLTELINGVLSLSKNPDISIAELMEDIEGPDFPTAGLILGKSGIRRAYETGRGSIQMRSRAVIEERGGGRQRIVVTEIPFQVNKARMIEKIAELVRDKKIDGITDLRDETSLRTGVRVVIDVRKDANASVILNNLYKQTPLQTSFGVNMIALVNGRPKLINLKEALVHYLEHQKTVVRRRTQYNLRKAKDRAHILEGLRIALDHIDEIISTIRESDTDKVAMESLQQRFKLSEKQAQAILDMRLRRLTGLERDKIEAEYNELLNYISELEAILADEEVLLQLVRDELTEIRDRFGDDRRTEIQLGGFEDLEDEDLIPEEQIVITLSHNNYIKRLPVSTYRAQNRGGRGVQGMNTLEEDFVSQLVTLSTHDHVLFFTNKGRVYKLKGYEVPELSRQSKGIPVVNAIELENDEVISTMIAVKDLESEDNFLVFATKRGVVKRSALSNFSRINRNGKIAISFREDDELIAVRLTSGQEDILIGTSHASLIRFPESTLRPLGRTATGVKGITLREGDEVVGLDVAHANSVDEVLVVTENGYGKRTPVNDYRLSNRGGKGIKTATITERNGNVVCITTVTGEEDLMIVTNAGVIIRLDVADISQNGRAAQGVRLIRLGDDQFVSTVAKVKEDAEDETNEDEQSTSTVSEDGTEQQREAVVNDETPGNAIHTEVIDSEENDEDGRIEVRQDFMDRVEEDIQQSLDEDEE
T4 sequence (P0AES4 whole entry, one chain of several): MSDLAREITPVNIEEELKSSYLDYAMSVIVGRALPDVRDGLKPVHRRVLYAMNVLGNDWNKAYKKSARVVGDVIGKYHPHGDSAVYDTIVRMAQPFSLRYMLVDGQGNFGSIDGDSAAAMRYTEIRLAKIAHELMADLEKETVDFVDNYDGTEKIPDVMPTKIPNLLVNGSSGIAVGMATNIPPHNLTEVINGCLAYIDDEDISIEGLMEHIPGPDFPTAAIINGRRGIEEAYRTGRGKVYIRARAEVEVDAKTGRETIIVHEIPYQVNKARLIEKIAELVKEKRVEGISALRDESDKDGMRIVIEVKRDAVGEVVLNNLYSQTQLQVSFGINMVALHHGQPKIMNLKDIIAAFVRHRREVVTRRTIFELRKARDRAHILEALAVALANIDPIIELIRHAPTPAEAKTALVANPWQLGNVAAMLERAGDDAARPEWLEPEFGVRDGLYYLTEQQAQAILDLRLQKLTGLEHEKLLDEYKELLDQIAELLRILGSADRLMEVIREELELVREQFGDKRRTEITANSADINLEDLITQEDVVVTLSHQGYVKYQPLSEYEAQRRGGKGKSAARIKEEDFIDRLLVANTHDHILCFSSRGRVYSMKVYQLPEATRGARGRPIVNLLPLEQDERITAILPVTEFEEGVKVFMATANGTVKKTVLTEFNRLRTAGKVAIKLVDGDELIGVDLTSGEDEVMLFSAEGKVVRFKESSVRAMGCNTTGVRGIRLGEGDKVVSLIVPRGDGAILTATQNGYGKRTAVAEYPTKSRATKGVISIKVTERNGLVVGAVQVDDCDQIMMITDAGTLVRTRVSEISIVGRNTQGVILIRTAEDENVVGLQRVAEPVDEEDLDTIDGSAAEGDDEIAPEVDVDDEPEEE

By pIC50 is commonly meant the IC50 on a negative log10 scale, so that one unit is a factor of ten. Turning to “7-methoxy-1-chloroisoquinoline [Compound 88]”, the “% inhibition Topo IV” value on E. coli Topoisomerase IV (setting [2]) was 100%; in assay [1] (setting [4]), 88%. For the same molecule, the pIC50 on E. coli Topoisomerase IV (setting [3]) was 6.05; in assay [1] (setting [5]) it was 5.17; on S. aureus DNA gyrase (setting [6]) it was 5.96; on E. coli DNA gyrase (setting [7]) it was 5.49. Moreover, the “% inhibition DNA gyrase” value at S. aureus DNA gyrase (setting [4]) and at E. coli DNA gyrase (setting [2]) was 100% throughout.

Consider “7-methyl-1-chloroisoquinoline [Compound 72]”, for which the figures for the “% inhibition Topo IV” value (on E. coli Topoisomerase IV (setting [8]); in assay [1] (setting [9])) were 91% and 76%, respectively. The pIC50 on E. coli Topoisomerase IV (setting [3]) was 5.42; in assay [1] (setting [5]), 4.28; at S. aureus DNA gyrase (setting [6]), 5.02; at E. coli DNA gyrase (setting [7]) it was 5.59. In addition, the “% inhibition DNA gyrase” value on S. aureus DNA gyrase (setting [9]) was determined as 97%; on E. coli DNA gyrase (setting [8]), 98%.

Broadly, the inhibition is the change of the read-out against control, counted positive when it falls. For `O=c1cc(NCC(O)CN2CCN(c3nccc4ccccc34)CC2)c2ccccc2o1` (racemic) [Compound 59, 4-({2-hydroxy-3-[4-(isoquinolin-1-yl)piperazin-1-yl]propyl}amino)-2H-chromen-2-one], the negative logarithm of the IC50 (pIC50) against E. coli Topoisomerase IV is 4.79; in assay [1], 4.73; against S. aureus DNA gyrase, 5.36; against E. coli DNA gyrase it was 5.92. Besides, the inhibition at 100 µM was 100% on E. coli Topoisomerase IV (E. coli, conc. 100 μM, n/a = not active, read-out: % inhibition Topo IV); 77% in assay [1] (S. aureus, conc. 100 μM, n/a = not active, read-out: % inhibition Topo IV); 90% against S. aureus DNA gyrase (setting [9]); 81% against E. coli DNA gyrase (setting [8]).

For `CCOC(=O)C1CN(c2nccc3ccc(F)cc23)CCC1NCc1cc2c(=O)oc3ccccc3c2[nH]1` (racemic) [Compound 184, ethyl 1-(7-fluoroisoquinolin-1-yl)-4-{[(4-oxo-1,4-dihydro[1]benzopyrano[4,3-b]pyrrol-2-yl)methyl]amino}piperidine-3-carboxylate], the inhibition at 50 µM at E. coli Topoisomerase IV (setting [10]) turned out to be 58%; in assay [1] (read-out: % inhibition Topo IV), 69%; against S. aureus DNA gyrase (setting [4]) it was 83%; against E. coli DNA gyrase (setting [2]), 68%.

With `O=c1cc(NCCCN2CCN(c3nccc4ccccc34)CC2)c2ccccc2o1` [Compound 44, 4-({3-[4-(isoquinolin-1-yl)piperazin-1-yl]propyl}amino)-2H-chromen-2-one], the pIC50 on E. coli Topoisomerase IV is 5.00; in assay [1], 4.05; against S. aureus DNA gyrase, 4.85; against E. coli DNA gyrase, 6.30. Further, the inhibition at 200 µM at E. coli Topoisomerase IV (E. coli, conc. 200 μM, n/a = not active, read-out: % inhibition Topo IV) was 100%; in assay [1] (S. aureus, conc. 200 μM, n/a = not active, read-out: % inhibition Topo IV), 65%; against S. aureus DNA gyrase (S. aureus, conc. 200 μM, n/a = not active), 100%; against E. coli DNA gyrase (E. coli, conc. 200 μM, n/a = not active), 100%.

As to `C[N+]1(CCCNc2cc(=O)oc3ccccc23)CCN(c2nccc3ccccc23)CC1` [Compound 124, 4-(isoquinolin-1-yl)-1-methyl-1-{3-[(2-oxo-2H-chromen-4-yl)amino]propyl}piperazin-1-ium iodide], the pIC50 against E. coli Topoisomerase IV is 5.22; on S. aureus DNA gyrase, 5.05; against E. coli DNA gyrase, 5.15. Further, the inhibition at 50 µM at E. coli Topoisomerase IV (setting [10]) amounted to 62%; at S. aureus DNA gyrase (setting [4]), 75%; on E. coli DNA gyrase (setting [2]) it was 79%.

As for `O=c1cc(NCCCN2CCN(c3nccc4ccc(F)cc34)CC2)c2c(o1)CCOC2` [Compound 125, 4-({3-[4-(7-fluoroisoquinolin-1-yl)piperazin-1-yl]propyl}amino)-7,8-dihydro-2H,5H-pyrano[4,3-b]pyran-2-one], the pIC50 on E. coli Topoisomerase IV was 4.23; on S. aureus DNA gyrase, 4.72; against E. coli DNA gyrase, 5.20. The inhibition at 50 µM amounted to 68% on E. coli Topoisomerase IV (setting [10]), 89% on S. aureus DNA gyrase (setting [4]) and 86% against E. coli DNA gyrase (setting [2]).

For the molecule `O=c1cc(CC(O)CCN2CCN(c3nccc4ccc(F)cc34)CC2)c2ccccc2o1` (stereo not drawn) [Compound 134, 4-{4-[4-(7-fluoroisoquinolin-1-yl)piperazin-1-yl]-2-hydroxybutyl}-2H-chromen-2-one], the negative-log IC50 (pIC50) against E. coli Topoisomerase IV was 5.60; at S. aureus DNA gyrase it was 6.09; against E. coli DNA gyrase it was 5.55. The figures for the inhibition at 50 µM at E. coli Topoisomerase IV (setting [10]), at S. aureus DNA gyrase (setting [4]) and against E. coli DNA gyrase (setting [2]) were 78%, 71% and 87%, respectively.

`O=c1oc2ccccc2c2[nH]c(CCN3CCN(c4nccc5ccc(F)cc45)CC3)nc12` [Compound 143, 2-{2-[4-(7-fluoroisoquinolin-1-yl)piperazin-1-yl]ethyl}chromeno[3,4-d]imidazol-4(1H)-one]: the inhibition at 50 µM at E. coli Topoisomerase IV (setting [10]) turned out to be 91%; against S. aureus DNA gyrase (setting [4]), 89%; on E. coli DNA gyrase (setting [2]), 96%.

On to `O=c1oc2ccccc2c2[nH]c(CNC3CCN(c4nccc5ccc(F)cc45)CC3)cc12` [Compound 145, 2-({[1-(7-fluoroisoquinolin-1-yl)piperidin-4-yl]amino}methyl)[1]benzopyrano[4,3-b]pyrrol-4(1H)-one], for which the inhibition at 50 µM amounted to 100% at E. coli Topoisomerase IV (setting [10]), 97% at S. aureus DNA gyrase (setting [4]) and 99% at E. coli DNA gyrase (setting [2]).

Turning to `O=c1oc2ccccc2c2[nH]c(CNC3CCN(c4nccc5ccc(F)cc45)CC3)nc12` [Compound 146, 2-({[1-(7-fluoroisoquinolin-1-yl)piperidin-4-yl]amino}methyl)[1]benzopyrano[3,4-d]imidazol-4(1H)-one], the inhibition at 50 µM on E. coli Topoisomerase IV (setting [10]) turned out to be 100%; against S. aureus DNA gyrase (setting [4]) it was 93%; against E. coli DNA gyrase (setting [2]) it was 91%.

Take `O=c1oc2ccccc2c2[nH]c(CCCN3CCN(c4nccc5ccc(F)cc45)CC3)nc12` [Compound 147, 2-{3-[4-(7-fluoroisoquinolin-1-yl)piperazin-1-yl]propyl}[1]benzopyrano[3,4-d]imidazol-4(1H)-one]: the values for the inhibition at 50 µM on E. coli Topoisomerase IV (setting [10]), against S. aureus DNA gyrase (setting [4]) and at E. coli DNA gyrase (setting [2]) were 74%, 85% and 84%, respectively.

Source of the values: patent publication US10221144B2, “Antibacterial compounds having broad spectrum of activity” (priority 2014, dated 2019).
